Test results: PubChem BioAssay AID330 (DTP/NCI, 2004)
Values joined by “and” are separate entries in the source; they are usually repeats but may differ in a detail not shown here. Equal values may be shown once. Toxic doses and inconclusive results are not listed.

System: P388 leukemia ip, CD2F1 mice, survival T/C
Assay: NCI In Vivo Anticancer Drug Screen. Data for tumor model P388 Leukemia (intraperitoneal) in CD2F1 (CDF1) mice
Conditions: endpoint: median survival time, higher = longer survival
In short: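 Mice carrying the transplanted tumor received test compound or vehicle. Survival was recorded in each group, and the value is the treated-group measurement divided by that of the vehicle-treated control group.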

Which results are given for `CC1OC(=O)C(C(C)C)NC(=O)C(C(C)C)OC(=O)C(C(C)C)NC(=O)C(C)OC(=O)C(C(C)C)NC(=O)C(C(C)C)OC(=O)C(C(C)C)NC(=O)C(C)OC(=O)C(C(C)C)NC(=O)C(C(C)C)OC(=O)C(C(C)C)NC1=O` (stereo not drawn)?
T/C (dose: 0.03 mg/kg/injection, schedule: Q01DX009 (ip), vehicle: other): 113 % of control; T/C (dose: 0.1 mg/kg/injection, schedule: Q01DX005 (ip), vehicle: DMSO): 110 % of control; T/C (dose: 0.1 mg/kg/injection, schedule: Q01DX005 (ip), vehicle: other): 108 % of control; T/C (dose: 0.12 mg/kg/injection, schedule: Q01DX009 (oral), vehicle: other): 102 % of control; T/C (dose: 0.2 mg/kg/injection, schedule: Q01DX005 (ip), vehicle: DMSO): 116 % of control; T/C (dose: 0.2 mg/kg/injection, schedule: Q01DX005 (ip), vehicle: other): 110 % of control; T/C (dose: 0.23 mg/kg/injection, schedule: Q01DX009 (oral), vehicle: other): 96 % of control; T/C (dose: 0.25 mg/kg/injection, schedule: Q01DX009 (ip), vehicle: other): 154 % of control; T/C (dose: 0.4 mg/kg/injection, schedule: Q01DX005 (ip), vehicle: other): 120 % of control; T/C (dose: 0.47 mg/kg/injection, schedule: Q01DX009 (ip), vehicle: Klucel (hydroxypropylcellulose) (HPC)): 155 % of control; T/C (dose: 0.47 mg/kg/injection, schedule: Q01DX009 (oral), vehicle: other): 98 % of control; T/C (dose: 0.5 mg/kg/injection, schedule: Q01DX009 (ip), vehicle: Klucel (hydroxypropylcellulose) (HPC)): 116 % of control; T/C (dose: 0.5 mg/kg/injection, schedule: Q01DX009 (ip), vehicle: other): 100 % of control; T/C (dose: 0.62 mg/kg/injection, schedule: Q01DX009 (ip), vehicle: saline): 111 % of control and 97 % of control; T/C (dose: 0.94 mg/kg/injection, schedule: Q01DX009 (oral), vehicle: Klucel (hydroxypropylcellulose) (HPC)): 103 % of control; T/C (dose: 0.94 mg/kg/injection, schedule: Q01DX009 (oral), vehicle: other): 93 % of control; T/C (dose: 1.0 mg/kg/injection, schedule: Q01DX005 (ip), vehicle: Klucel (hydroxypropylcellulose) (HPC)): 155 % of control; T/C (dose: 1.25 mg/kg/injection, schedule: Q01DX009 (ip), vehicle: saline): 94 % of control; T/C (dose: 1.88 mg/kg/injection, schedule: Q01DX009 (ip), vehicle: Klucel (hydroxypropylcellulose) (HPC)): 161 % of control; T/C (dose: 1.88 mg/kg/injection, schedule: Q01DX009 (oral), vehicle: Klucel (hydroxypropylcellulose) (HPC)): 108 % of control; T/C (dose: 2.0 mg/kg/injection, schedule: Q01DX005 (ip), vehicle: Klucel (hydroxypropylcellulose) (HPC)): 165 % of control; T/C (dose: 2.5 mg/kg/injection, schedule: Q01DX009 (ip), vehicle: saline): 87 % of control and 94 % of control; T/C (dose: 3.75 mg/kg/injection, schedule: Q01DX009 (oral), vehicle: Klucel (hydroxypropylcellulose) (HPC)): 106 % of control; T/C (dose: 4.0 mg/kg/injection, schedule: Q01DX005 (ip), vehicle: Klucel (hydroxypropylcellulose) (HPC)): 160 % of control and 162 % of control; T/C (dose: 5.0 mg/kg/injection, schedule: Q01DX009 (ip), vehicle: Klucel (hydroxypropylcellulose) (HPC)): 162 % of control; T/C (dose: 5.0 mg/kg/injection, schedule: Q01DX009 (ip), vehicle: saline with Tween-80): 106 % of control; T/C (dose: 5.0 mg/kg/injection, schedule: Q01DX009 (ip), vehicle: saline): 87 % of control and 93 % of control; T/C (dose: 7.5 mg/kg/injection, schedule: Q01DX009 (ip), vehicle: Klucel (hydroxypropylcellulose) (HPC)): 88 % of control; T/C (dose: 7.5 mg/kg/injection, schedule: Q01DX009 (oral), vehicle: Klucel (hydroxypropylcellulose) (HPC)): 88 % of control; T/C (dose: 8.0 mg/kg/injection, schedule: Q01DX005 (ip), vehicle: Klucel (hydroxypropylcellulose) (HPC)): 159 % of control and 162 % of control; T/C (dose: 10.0 mg/kg/injection, schedule: Q01DX009 (ip), vehicle: Klucel (hydroxypropylcellulose) (HPC)): 97 % of control; T/C (dose: 10.0 mg/kg/injection, schedule: Q04DX003 (ip), vehicle: saline with Tween-80): 151 % of control and 167 % of control; T/C (dose: 16.0 mg/kg/injection, schedule: Q01DX005 (ip), vehicle: Klucel (hydroxypropylcellulose) (HPC)): 163 % of control; T/C (dose: 20.0 mg/kg/injection, schedule: Q04DX003 (ip), vehicle: saline with Tween-80): 108 % of control; T/C (dose: 6.25 micrograms/kg/injection, schedule: Q03HX008 (ip), vehicle: other): 101 % of control; T/C (dose: 6.25 micrograms/kg/injection, schedule: Q03HX020 (ip), vehicle: other): 118 % of control; T/C (dose: 6.25 micrograms/kg/injection, schedule: Q12HX004 (iv), vehicle: other): 101 % of control; T/C (dose: 6.25 micrograms/kg/injection, schedule: Q12HX010 (ip), vehicle: other): 111 % of control; T/C (dose: 6.25 micrograms/kg/injection, schedule: Q12HX010 (iv), vehicle: other): 102 % of control; T/C (dose: 12.5 micrograms/kg/injection, schedule: Q01DX001 (iv), vehicle: other): 97 % of control; T/C (dose: 12.5 micrograms/kg/injection, schedule: Q01DX005 (ip), vehicle: other): 103 % of control and 107 % of control; T/C (dose: 12.5 micrograms/kg/injection, schedule: Q01DX005 (iv), vehicle: other): 99 % of control and 100 % of control; T/C (dose: 12.5 micrograms/kg/injection, schedule: Q03HX008 (ip), vehicle: other): 118 % of control; T/C (dose: 12.5 micrograms/kg/injection, schedule: Q03HX020 (ip), vehicle: other): 119 % of control; T/C (dose: 12.5 micrograms/kg/injection, schedule: Q04DX002 (iv), vehicle: other): 101 % of control; T/C (dose: 12.5 micrograms/kg/injection, schedule: Q12HX004 (ip), vehicle: other): 110 % of control; T/C (dose: 12.5 micrograms/kg/injection, schedule: Q12HX004 (iv), vehicle: other): 103 % of control; T/C (dose: 12.5 micrograms/kg/injection, schedule: Q12HX010 (ip), vehicle: other): 123 % of control; T/C (dose: 12.5 micrograms/kg/injection, schedule: Q12HX010 (iv), vehicle: other): 103 % of control; T/C (dose: 25.0 micrograms/kg/injection, schedule: Q01DX001 (ip), vehicle: other): 98 % of control; T/C (dose: 25.0 micrograms/kg/injection, schedule: Q01DX001 (iv), vehicle: other): 103 % of control; T/C (dose: 25.0 micrograms/kg/injection, schedule: Q01DX005 (ip), vehicle: other): 115 % of control and 116 % of control; T/C (dose: 25.0 micrograms/kg/injection, schedule: Q01DX005 (iv), vehicle: other): 99 % of control and 100 % of control; T/C (dose: 25.0 micrograms/kg/injection, schedule: Q03HX008 (ip), vehicle: other): 113 % of control; T/C (dose: 25.0 micrograms/kg/injection, schedule: Q03HX020 (ip), vehicle: other): 124 % of control; T/C (dose: 25.0 micrograms/kg/injection, schedule: Q04DX002 (ip), vehicle: other): 102 % of control; T/C (dose: 25.0 micrograms/kg/injection, schedule: Q04DX002 (iv), vehicle: other): 101 % of control; T/C (dose: 25.0 micrograms/kg/injection, schedule: Q12HX004 (ip), vehicle: other): 100 % of control; T/C (dose: 25.0 micrograms/kg/injection, schedule: Q12HX004 (iv), vehicle: other): 98 % of control; T/C (dose: 25.0 micrograms/kg/injection, schedule: Q12HX010 (ip), vehicle: other): 121 % of control; T/C (dose: 25.0 micrograms/kg/injection, schedule: Q12HX010 (iv), vehicle: other): 103 % of control; T/C (dose: 50.0 micrograms/kg/injection, schedule: Q01DX001 (ip), vehicle: other): 100 % of control; T/C (dose: 50.0 micrograms/kg/injection, schedule: Q01DX001 (iv), vehicle: other): 101 % of control; T/C (dose: 50.0 micrograms/kg/injection, schedule: Q01DX005 (ip), vehicle: other): 118 % of control and 120 % of control; T/C (dose: 50.0 micrograms/kg/injection, schedule: Q01DX005 (iv), vehicle: other): 98 % of control and 103 % of control; T/C (dose: 50.0 micrograms/kg/injection, schedule: Q04DX002 (ip), vehicle: other): 109 % of control; T/C (dose: 50.0 micrograms/kg/injection, schedule: Q04DX002 (iv), vehicle: other): 100 % of control; T/C (dose: 50.0 micrograms/kg/injection, schedule: Q12HX004 (ip), vehicle: other): 113 % of control; T/C (dose: 50.0 micrograms/kg/injection, schedule: Q12HX004 (iv), vehicle: other): 104 % of control; T/C (dose: 50.0 micrograms/kg/injection, schedule: Q12HX010 (iv), vehicle: other): 101 % of control; T/C (dose: 100.0 micrograms/kg/injection, schedule: Q01DX001 (ip), vehicle: other): 100 % of control; T/C (dose: 100.0 micrograms/kg/injection, schedule: Q01DX001 (iv), vehicle: other): 100 % of control; T/C (dose: 100.0 micrograms/kg/injection, schedule: Q01DX005 (iv), vehicle: other): 101 % of control; T/C (dose: 100.0 micrograms/kg/injection, schedule: Q03HX020 (ip), vehicle: other): 161 % of control; T/C (dose: 100.0 micrograms/kg/injection, schedule: Q04DX002 (ip), vehicle: other): 110 % of control; T/C (dose: 100.0 micrograms/kg/injection, schedule: Q04DX002 (iv), vehicle: other): 101 % of control; T/C (dose: 100.0 micrograms/kg/injection, schedule: Q12HX004 (ip), vehicle: other): 124 % of control; T/C (dose: 100.0 micrograms/kg/injection, schedule: Q12HX010 (iv), vehicle: other): 102 % of control; T/C (dose: 200.0 micrograms/kg/injection, schedule: Q01DX001 (ip), vehicle: other): 103 % of control; T/C (dose: 200.0 micrograms/kg/injection, schedule: Q03HX008 (ip), vehicle: other): 120 % of control; T/C (dose: 200.0 micrograms/kg/injection, schedule: Q12HX010 (ip), vehicle: other): 153 % of control; T/C (dose: 400.0 micrograms/kg/injection, schedule: Q01DX001 (ip), vehicle: other): 111 % of control; T/C (dose: 800.0 micrograms/kg/injection, schedule: Q01DX001 (ip), vehicle: other): 114 % of control
